This note sets out measurements from patent publication US20130165489A1, “Small Molecule Modulators of HIV-1 Capsid Stability and Methods Thereof” (The Trustees of the University of Pennsylvania, priority 2010, published 2013).

One may read the CC50 as the concentration that lowers cell viability or growth by half. Lower therefore signals harm at low concentration.

Entries after “also recorded” stand apart in the source; their conditions may differ.

The subject of one data set is producer cells (293T). Format: cell-based, human. From the text: Moreover, these compounds appeared to be working at different stages of the viral life-cycle—one at an early post-entry event (CMPD-A) and the other at an assembly or post-integration event in HIV-1 replication (CMPD-D).
Data set [1] concerns recombinant luciferase-expressing HIV-1 bearing the envelope glycoprotein of the HIV-1YU-2 strain. Nature of the data set: Single-round infection assay, HIV-1 with YU-2 envelope on Cf2Th-CCR5 cells. Conditions: Human immunodeficiency virus 1, Cf2Th-CCR5, read-out: IC50 against HIV-1 (single-round infection).
Data set [2] has as its system Vero cells. To be noted: over the concentration range tested.
Data set [3] has as its system Vero cells. It counts as cell-based. To be noted: at 100 μM; MTT or renilla luciferase cellular assay. As for the experimental part: (§1) The activity of CMPD-A against a high-priority flaviviral pathogen, West Nile virus (WNV), was evaluated. The compound was tested in a West Nile Virus, virus-like particle (VLP) assay, which is a 24 hr assay on Vero cells using a firefly luciferase reporter to measure viral replication activity. In these tests IC50 values of 30 (±13) μM were obtained, with no toxicity at 100 μM using either both MTT or a renilla luciferase cellular assay (FIG. 16).

The test system of the next data set is DENV4. Nature of the data set: CPE assay, DENV4. It counts as cell-based. To be noted: Dengue virus, DENV4, Vero C1008; Vero E6 cells; 3 replicates.
The next data set concerns RSV. Nature of the data set: CPE assay, RSV. Format: cell-based, respiratory syncytial virus.
Another data set deals with HIV-1IIIB. Nature of the data set: Anti-HIV efficacy in P4-R5 MAGI cells. It counts as cell-based. As to the method: P4-R5 MAGI cells (NIH AIDS Research & Reference Reagent Program, catalog #3580) were maintained in Dulbecco's Modified Eagle's Media (DMEM) supplemented with 10% fetal bovine serum (FBS), sodium bicarbonate (0.05%), antibiotics (penicillin, streptomycin, and kanamycin at 40 μg/mL each), and puromycin (1 μg/mL). Initial studies were performed using the HIV-1-susceptible P4-R5 MAGI reporter cell line. HIV-1 infection of these cells (which express CD4, CXCR4, and CCR5) results in LTR-directed β-galactosidase expression, which can be readily and accurately quantitated. Approximately 18 h prior to the experiment, P4-R5 MAGI cells were plated at a concentration of 1.2×10^4 cells/well in a flat-bottom 96-well plate. On the day of the experiment, cells were infected in quadruplicate with HIV-1 strain IIIB (Advanced Biotechnologies, Inc., Columbia, Md.) in the presence or absence of putative CA inhibitors at the indicated concentrations. After 48 h incubation at 37° C., cells were assayed for infection using the Galacto-Star One-Step β-Galactosidase Reporter Gene Assay System (Applied Biosystems, Bedford, Mass.).

The test system of a further data set is West Nile virus (WNV). Nature of the data set: West Nile Virus virus-like particle (VLP) assay on Vero cells. It counts as cell-based. Conditions: 24 hr, firefly luciferase reporter, 2 replicates. As to the method:
as §1

The test system of data set [4] is DENV2. Nature of the data set: CPE assay, DENV2. It counts as cell-based. Conditions: Dengue virus, DENV2, Vero C1008; Vero E6 cells; 3 replicates.
The test system of the next data set is DENV3. Nature of the data set: CPE assay, DENV3. Format: cell-based. To be noted: Dengue virus, DENV3, Vero C1008; Vero E6 cells; 3 replicates.
A further data set has as its system DENV (serotypes 1-4). Nature of the data set: CPE assay, Dengue serotypes 1-4. It counts as cell-based, Dengue virus. To be noted: Dengue virus; Vero cells; read-out: average half-maximal inhibitory concentration over DENV serotypes 1-4.
In data set [5] the test system is HIV-1 92BR030 (subtype B clinical isolate). Nature of the data set: Anti-HIV efficacy in human PBMCs, isolate 92BR030. Conditions: primary PBMCs. It counts as cell-based. As for the experimental part: HIV human peripheral blood mononuclear cell (PBMC) assays were performed as described previously (Lanier et al., 2010, Antimicrob. Agents Chemother. 54:2901-09; Ptak et al., 2008, Antimicrob. Agents Chemother. 52:1302-17). Briefly, fresh PBMCs, seronegative for HIV and hepatitis B virus (HBV), were isolated from blood samples of the screened donors (Biological Specialty Corporation, Colmar, Pa.) by using lymphocyte separation medium (LSM; density, 1.078±0.002 g/ml; Cellgro; Mediatech, Inc.) by following the manufacturer's instructions. Cells were stimulated by incubation in 4 μg/mL phytohemagglutinin (PHA; Sigma) for 48 to 72 h. Mitogenic stimulation was maintained by the addition of 20 U/mL recombinant human interleukin-2 (rhIL-2; R&D Systems, Inc.) to the culture medium. PHA-stimulated PBMCs from at least two donors were pooled, diluted in fresh medium, and added to 96-well plates at 5×10^4 cells/well. Cells were infected (final multiplicity of infection [MOI] of ≅0.1) in the presence of 9 different concentrations of test compounds (triplicate wells/concentration) and incubated for 7 days. To determine the level of virus inhibition, cell-free supernatant samples were collected for analysis of reverse transcriptase activity (Buckheit Jr., et al., 1991, AIDS Res. Hum. Retroviruses 7:295-302). Following removal of supernatant samples, compound cytotoxicity was measured by the addition of 3-(4,5-dimethylthiazol-2-yl)-5-(3-carboxymethoxyphenyl)-2-(4-sulfophenyl)-2H-tetrazolium (MTS; CellTiter 96 reagent; Promega) by following the manufacturer's instructions.
79:6089-6101; Jagodzinski et al., 2000, J. Clin. Microbiol. 38:1247-49; Michael et al., 1999, J. Clin. Microbiol. 37:2557-63 and Vahey et al., 1999, J. Clin. Microbiol. 37:2533-37); HIV-1 Group M isolate 931N101 (Subtype C, CCR5-tropic) from Dr. Robert Bollinger and the UNAIDS Network for HIV Isolation and Characterization (Gao et al., 1994, AIDS Res. Hum. Retroviruses 10:1359-68); HIV-1 Group M isolate CMUO8 (Subtype E, CXCR4-tropic) from Dr. Kenrad Nelson and the UNAIDS Network for HIV Isolation and Characterization (Gao et al., 1994, AIDS Res. Hum. Retroviruses 10:1359-68); HIV-1 Group M isolate G3 (Subtype G, CCR5-tropic) from Alash'le Abimiku (Abimiku et al., 1994, Aids Res. Hum. Retrovir. 10:1581-83); HIV-1 Group 0 isolate BCF02 (CCR5-tropic) from Sentob Saragosti, Françoise Brun-Vézinet, and François Simon (Loussertajaka et al., 1995, J. Virol. 69:5640-49); and SIV isolate Mac251 from Dr. Ronald Desrosiers (Daniel et al., 1985, Science 228:1201-04).

The test system of another data set is DENV1. Nature of the data set: CPE assay, DENV1. Format: cell-based. Conditions: Dengue virus, DENV1, Vero C1008; Vero E6 cells; 3 replicates.
The test system of data set [6] is DENV2. Nature of the data set: DENV2 focus reduction assay using BHK cells. Conditions: Dengue virus, read-out: average IC50, DENV2 focus reduction.
Data set [7] is described as follows: Single-round infection assay, infection of U87 CD4-CXCR4 target cells in presence of compound. To be noted: Human immunodeficiency virus 1, U87.CD4.CXCR4, read-out: IC50 against HIV-1.
A short description of another data set: in vitro. Format: cell-based. To be noted: hamster.

As to `O=C(O)c1ccc(-c2nc(-c3ccc4oc5ccc(-c6nc(-c7ccc(C(=O)O)cc7)[nH]c6-c6ccccc6)cc5c4c3)c(-c3ccccc3)[nH]2)cc1` [CMPD-A, 4,4′-(4,4′-(dibenzo[b,d]furan-2,8-diyl)bis(5-phenyl-1H-imidazole-4,2-diyl))dibenzoic acid], the “LDH release versus untreated cells” value in the data set on producer cells (293T) is reported as “Neither CMPD-A nor CMPD-D promoted LDH release”. Also, the IC50 in [1] was determined as 33.3 ± 0.31 µM; in the data set on DENV4, 2.37 µM; with RSV (human respiratory syncytial virus, RSV, Vero cells) it was 10.2 µM; in the data set on HIV-1IIIB (Human immunodeficiency virus 1, fully infectious virus, P4-R5 MAGI cell line, read-out: IC50 for replication of HIV-1IIIB) it was 89 ± 3.2 µM; in the data set on West Nile virus (WNV), 30 µM; in the data set with DENV2 [4], 1.43 µM. The IC50 in the data set on DENV3 turned out to be 7.66 µM; with DENV (serotypes 1-4) it was 4.95 µM; in the data set on DENV1, 8.35 µM; in the data set with DENV2 [6], 1.25 µM; in data set [7], 33.6 ± 0.31 µM. Also, the “cellular toxicity against the Vero cells” value in the data set with Vero cells [2] is reported as “no cellular toxicity”. For the same compound, the “toxicity” value in the data set with Vero cells [3] is “no toxicity”. In addition, the “activity against RSV” value in the data set on RSV (CPE assay, up to 100 μM) was “active against RSV”. For the same compound, the “inhibition of HIV-1IIIB replication” value in the data set with HIV-1IIIB (P4-R5 MAGI cells) is “retained the ability to inhibit”. In data set [5], the “inhibition of HIV-1 92BR030 replication in PBMCs” value is “displayed no activity; also recorded: unable to inhibit; also recorded: did not affect replication”. Besides, half-maximal cytotoxicity in “in vitro” (CC50) was put at 35 µM.
